Values joined by “and” are separate entries in the source; they are usually repeats but may differ in a detail not shown here. Equal values may be shown once.

We go through 48 compounds from the Deep4Chem optical property database.

A short description of the data set: solvent given as SMILES.

In the case of `CCCCCCCCCCOc1cc(OCCCCCCCCCC)cc(C2=C3C(/C=C/c4ccc(N(C)C)cc4)=C(C#Cc4ccc(C(C)(C)C)cc4)C(/C=C/c4ccc(N(C)C)cc4)=[N+]3[B-](F)(F)n3c(/C=C/c4ccc(N(C)C)cc4)c(C#Cc4ccc(C(C)(C)C)cc4)c(/C=C/c4ccc(N(C)C)cc4)c32)c1`, the absorption maximum (in ClC(Cl)Cl) is recorded as 797 nm.
As for `Cn1cc(-c2nc3ccccc3nc2C#Cc2ccc(C#N)cc2)c2ccccc21`, the absorption maximum (in ClCCl) is 418 nm.
As for `CCCCCn1c2ccc(S(=O)(=O)O)cc2c(=O)c2cc(S(=O)(=O)O)ccc21`, the absorption maximum worked out at 406 nm (in CS(C)=O) and 406 nm (in O).
Where the note is “in ClC(Cl)Cl”, `CC1=[N+]2C(=C(c3c4ccccc4cc4ccccc34)c3ccc(/C=C/C(C)(C)C)n3[B-]2(F)F)C=C1` came in with an absorption maximum of 549 nm.
With `O=CN1N=C(c2ccc(Br)cc2)C[C@@H]1c1ccccc1`, the absorption maximum (in C1CCCCC1) amounted to 305 nm; the absorption maximum (in C1COCCO1) was 303 nm; the absorption maximum (in CC#N) was found to be 298 nm; the absorption maximum (in CCO) worked out at 297 nm; the absorption maximum (in CCOC(C)=O) was determined as 301 nm; the absorption maximum (in CO) amounted to 298 nm. Further, the absorption maximum (in CS(C)=O) was found to be 302 nm, the absorption maximum (in Cc1ccccc1) is recorded as 306 nm and the absorption maximum (in ClC(Cl)(Cl)Cl) is reported as 306 nm.
`CC1=N/C(=C\c2ccccc2N(C)C)C(=O)N1C` returned an absorption maximum (in C1CCCCC1) of 395 nm; an absorption maximum (in C1CCOC1) of 395 nm; an absorption maximum (in CC#N) of 396 nm; an absorption maximum (in CO) of 398 nm; an absorption maximum (in CS(C)=O) of 398 nm; an absorption maximum (in ClCCl) of 396 nm. This compound gave an absorption maximum (in O) of 346 nm.
Compound `CC1=CC(/C=C/c2ccc(OCCCN=[N+]=[N-])cc2)=[N+]2C1=C(c1ccc(N(C)C)cc1)c1c(C)cc(C)n1[B-]2(F)F` showed an absorption maximum (in CO) of 568 nm.
`CCCCn1c2ccc(-c3ccc4c(c3)c3c5c(ccc6ccc7ccccc7c65)ccc3n4CCCC)cc2c2c3c(ccc4ccc5ccccc5c43)ccc21` yielded an absorption maximum (in ClCCl) of 336 nm.
Under “in ClC(Cl)Cl”, `COc1ccc2c3ccc(OC)cc3c3cc4c(C)cc(=O)oc4cc3c2c1` showed an absorption maximum of 365 nm.
As for `CC(C)(C)c1ccc(C(C)(C)C)c(N2C(=O)c3cccc4c(-c5ccc(-c6ccccc6)s5)ccc(c34)C2=O)c1`, the absorption maximum reads like this: (in CO) 403 nm; (in CS(C)=O) 405 nm; (in Cc1ccccc1) 398 nm.
Compound `C[Si]1(C)c2ccc(-c3cccs3)cc2C=Cc2cc(-c3cccs3)ccc21` came in with an absorption maximum (in ClCCl) of 354 nm.
Compound `O=C1C(=c2c(=O)c3c4ccccc4cc4cc5ccccc5c2c43)C(=O)c2ccccc21` came in with an absorption maximum (in ClCCl) of 518.56 nm.
With `O=C(O)CCCc1cc(C#Cc2ccccc2)c2ccc3c(C#Cc4ccccc4)cc(C#Cc4ccccc4)c4ccc1c2c34`, the absorption maximum is on record as 451 nm (in CS(C)=O) and 445 nm (in ClC(Cl)(Cl)Cl).
Compound `Cc1cc(C2=Cc3cccc[n+]3[B-](F)(F)O2)ccc1N(C)C` had an absorption maximum (in ClC(Cl)Cl) of 400 nm.
The compound `CCc1c(C)c2n(c1C)[B-](F)(F)[N+]1=C(C=C3C=Cc4ccccc43)C=CC1=C2C` returned an absorption maximum (in C1CCCCC1) of 591 nm.
Compound `CCOC(=O)c1ccc(C2=CC3=c4cc(-c5ccc(C(=O)OCC)cc5)c5nc(C(F)(F)C(F)(F)C(F)(F)F)nc6c(-c7ccc(C(=O)OCC)cc7)cc(c4c65)C4=CC(c5ccc(C(=O)OCC)cc5)=C5N=C(C(F)(F)C(F)(F)C(F)(F)F)N=C2C5C43)cc1` (configuration not stated) gave an absorption maximum (in C1CCOC1) of 497 nm.
As to `N#Cc1nc2c3ccc(-c4ccc(N(c5ccccc5)c5ccccc5)cc4)cc3c3cc(-c4ccc(N(c5ccccc5)c5ccccc5)cc4)ccc3c2nc1C#N`, under “in Cc1ccccc1”, the absorption maximum is 460 nm.
In turn, `Cc1ccc(C2=C3C=CC(C#Cc4ccccc4)=[N+]3[B-](F)(F)n3c(C#Cc4ccccc4)ccc32)cc1` gave an absorption maximum (in C1CCCCC1) of 615 nm; an absorption maximum (in C1CCOC1) of 610 nm; an absorption maximum (in C1COCCO1) of 612 nm; an absorption maximum (in CCOC(C)=O) of 607 nm; an absorption maximum (in CO) of 605 nm; an absorption maximum (in Cc1ccccc1) of 614 nm. For the same compound, the absorption maximum is recorded as 614 nm (in ClC(Cl)Cl) and 614 nm (in ClCCl).
For the setting “in CC#N”, `Cc1sc(Cl)cc1-c1nc(-c2ccc(Cl)cc2)[nH]c1-c1cc(Cl)sc1C` registered an absorption maximum of 309 nm.
For `Nc1ccc2c(-c3ccc(Br)cc3)c3ccc(=[NH2+])cc-3oc2c1`, the absorption maximum (in CCO) was determined as 514 nm.
Compound `CCN1c2ccc(C3=CC(c4ccccc4)=[O+][B-](F)(F)O3)cc2Sc2cc(C3=CC(c4ccccc4)=[O+][B-](F)(F)O3)ccc21` yielded an absorption maximum (in ClCCl) of 525 nm.
As for `CN(C)c1ccc(-c2ccc(-c3cc(-c4ccccc4)c(-c4ccccc4)c(-c4ccccc4)c3-c3ccccc3)nc2)cc1`, under “in ClC(Cl)Cl”, the absorption maximum is 332 nm.
Regarding `Nc1cccc2ncccc12`, the absorption maximum is recorded as 340 nm (in CC#N) and 333 nm (in O).
Compound `CCOC(=O)c1c2c3c(ccc([N+](=O)[O-])c3c3cc4ccccc4cc13)N(C)C2=O` returned an absorption maximum (in CC#N) of 394 nm.
For `CC(C)(C)c1ccc(C(C)(C)C)c(N2C(=O)c3cccc4c(-c5ccc(-c6ccc([N+](=O)[O-])cc6)s5)ccc(c34)C2=O)c1`, the absorption maximum by setting is: (in CO) 393 nm; (in CS(C)=O) 400 nm; (in Cc1ccccc1) 392 nm.
Take `N#Cc1nc2c(nc1C#N)C1c3ccc(N(c4ccccc4)c4ccccc4)cc3C2c2ccc(N(c3ccccc3)c3ccccc3)cc21`: the absorption maximum came out at 408 nm (in C1CCCCC1), 378 nm (in CC#N), 391 nm (in Cc1ccccc1) and 409 nm (in ClCCl).
In the case of `Cc1ccc(-c2cc(/C=C/c3ccc(N(c4ccccc4)c4ccccc4)cc3)c(C#N)c(N3CCCCC3)c2)cc1`, for the setting “in CS(C)=O”, the absorption maximum came out at 401 nm.
`COc1cc2cc(OC)c(-c3ccc([N+](=O)[O-])cc3)cc2cc1-c1ccc([N+](=O)[O-])cc1`: the absorption maximum worked out at 336 nm (in ClC(Cl)Cl) and 337 nm (in ClCCl).
`CCCCCC(=O)c1ccc2c3c(sc2c1)-c1ccccc1P3(=O)c1ccccc1` (configuration not stated): the absorption maximum (in ClCCl) was 359 nm and 375 nm.
Consider `O=[N+]([O-])c1ccc([N+]2=Cc3ccc4c5c(ccc4c3O[B-]2(c2c(F)c(F)c(F)c(F)c2F)c2c(F)c(F)c(F)c(F)c2F)C=[N+](c2ccc([N+](=O)[O-])cc2)[B-](c2c(F)c(F)c(F)c(F)c2F)(c2c(F)c(F)c(F)c(F)c2F)O5)cc1`, for which the absorption maximum came to 525 nm (in C1CCOC1); 513 nm (in CC#N); 515 nm (in CC(C)=O); 549 nm (in Cc1ccccc1); 553 nm (in ClCCl).
`CCCC1(CCC)c2cc(-c3ccccc3)ccc2-c2ccc(-c3ccc4c(c3)C(CCC)(CCC)c3cc(-c5ccccc5)ccc3-4)cc21`: where the note is “in C1CCCCC1”, the absorption maximum was determined as 346 nm.
As for `CCN(CC)c1ccc2n1[B-](F)(F)[N+]1=CC(/C=C/C(=O)OC(C)(C)C)=CC1=C2c1c(C)cc(C)cc1C`, the absorption maximum (in ClCCl) is 478 nm.
With `CCOC(=O)c1cc(C(=O)OCC)c2ccc(C)cc2n1`, the absorption maximum (in CCO) came to 321 nm.
As to `Cc1ccc(N/C=C/C=[NH+]c2ccc(C)cc2)cc1`, the absorption maximum (in CS(C)=O) is 376 nm.
Regarding `FC(F)(F)c1ccc(-c2nnc(-c3cc(-c4nnc(-c5ccc(C(F)(F)F)cc5)o4)c(-n4c5ccccc5c5ccccc54)cc3-n3c4ccccc4c4ccccc43)o2)cc1`, the absorption maximum (in Cc1ccccc1) came out at 376 nm.
`O=C([O-])COc1cc(NC(=O)c2ccc(-c3c4cc(Cl)c(=O)cc-4oc4cc(O)c(Cl)cc34)c(C(=O)[O-])c2)ccc1N(CC(=O)[O-])CC(=O)[O-]` came in with an absorption maximum (in O) of 506 nm.
Regarding `CCCCC(CC)Cn1c2cc(C#N)ccc2c2ccc(C#Cc3ccc4ccc5c(C#Cc6ccc7c8ccc(C#N)cc8n(CC(CC)CCCC)c7c6)ccc6ccc3c4c65)cc21` (configuration not stated), where the note is “in ClCCl”, the absorption maximum came to 385 nm.
For the compound `C1=Cc2ccccc2C(=Cc2ccc(C=C3c4ccccc4-c4ccccc43)cc2)c2ccccc21`, the absorption maximum (in C1CCOC1) amounted to 360 nm.
As for `CCOC(=O)c1cc(C(=O)OCC)c2cc(N(C)C)ccc2n1`, the absorption maximum (in CCO) came out at 443 nm.
With `CCN(CC)c1ccc(/N=N/c2nc3ccc(Br)cc3s2)cc1`, the absorption maximum is recorded as 520 nm (in CC#N) and 518 nm (in ClCCl).
In turn, `Fc1ccc2c(c1)sc1nc(-c3ccccc3)sc12` showed an absorption maximum (in CS(C)=O) of 330 nm.
Under “in ClCCl”, `c1ccc(-c2ccc3c4ccc(-c5ccccc5)c5c(-c6ccccc6)ccc(c6ccc(-c7ccccc7)c2c36)c54)cc1` returned an absorption maximum of 486 nm.
Take `CCC1=C(C)C2=Cc3c4ccccc4c4n3[B-](c3cc[n+](C)cc3)(Oc3ccccc3-4)[N+]2=C1C=Cc1ccc(OC)cc1` (configuration not stated): the absorption maximum runs as follows: (in CO) 695 nm; (in CS(C)=O) 703 nm.
Take `CC(=O)Nc1ccc(O)cc1`: the absorption maximum worked out at 293 nm (in C1CCOC1); 290 nm (in CC#N); 290 nm (in CCCCO); 290 nm (in CO); 293 nm (in CS(C)=O).
Compound `c1ccc2c(c1)Sc1ccccc1N2c1ccc2c(c1)C1(CCCC1)c1cc(N3c4ccccc4Sc4ccccc43)ccc1-2` displayed an absorption maximum (in Cc1ccccc1) of 308 nm.
`Brc1cc2nc3cc4c5c(cccc5c3nc2cc1Br)C(c1ccccc1)=C(c1ccccc1)O4` yielded an absorption maximum (in ClCCl) of 518 nm.
Turning to `CCOC(=O)/C(C#N)=C/c1cc2c3ccccc3n(C)c2cc1OC`, the absorption maximum by setting is: (in C1CCOC1) 407 nm; (in CC#N) 410 nm; (in CCOC(C)=O) 406 nm; (in CN(C)C=O) 417 nm; (in CO) 415 nm; (in CS(C)=O) 419 nm. Besides, the absorption maximum by setting is: (in Cc1ccccc1) 407 nm; (in ClC(Cl)Cl) 415 nm; (in ClCCl) 412 nm.
With `CCCCCC(=O)c1c2c(c(C(=O)CCCCC)c3c1OC1(CCCC1)O3)OC1(CCCC1)O2`, the absorption maximum reads like this: (in CC#N) 444 nm; (in CCCCCC) 435 nm; (in CCO) 452 nm; (in CO) 452 nm; (in ClCCl) 449 nm.
